Source: PubChem BioAssay AID1259407 (Chemical Carcinogenesis Research Information System (CCRIS), 2018)
Active and inactive are the calls of the source. The rule behind the calls is not given here.

System: CCRIS mutagenicity, Ames/micronucleus/aberration tests
Assay: CCRIS mutagenicity studies
[1] = Test System: AMES SALMONELLA TYPHIMURIUM, Strain/Indicator: TA100, Metabolic Activation: NONE, Method: PREINCUBATION
[2] = Test System: AMES SALMONELLA TYPHIMURIUM, Strain/Indicator: TA100, Metabolic Activation: NONE, Method: STANDARD PLATE
[3] = Test System: AMES SALMONELLA TYPHIMURIUM, Strain/Indicator: TA1535, Metabolic Activation: NONE, Method: PREINCUBATION
[4] = Test System: AMES SALMONELLA TYPHIMURIUM, Strain/Indicator: TA98, Metabolic Activation: NONE, Method: PREINCUBATION
[5] = Test System: AMES SALMONELLA TYPHIMURIUM, Strain/Indicator: TA97, Metabolic Activation: HAMSTER, LIVER, S-9, AROCLOR 1254 (30%), Method: PREINCUBATION
[6] = Test System: AMES SALMONELLA TYPHIMURIUM, Strain/Indicator: TA97, Metabolic Activation: NONE, Method: PREINCUBATION
[7] = Test System: AMES SALMONELLA TYPHIMURIUM, Strain/Indicator: TA97, Metabolic Activation: RAT, LIVER, S-9, AROCLOR 1254 (30%), Method: PREINCUBATION
[8] = Test System: AMES SALMONELLA TYPHIMURIUM, Strain/Indicator: TA98, Metabolic Activation: HAMSTER, LIVER, S-9, AROCLOR 1254 (10%), Method: PREINCUBATION
[9] = Test System: AMES SALMONELLA TYPHIMURIUM, Strain/Indicator: TA98, Metabolic Activation: HAMSTER, LIVER, S-9, AROCLOR 1254 (30%), Method: PREINCUBATION
[10] = Test System: AMES SALMONELLA TYPHIMURIUM, Strain/Indicator: TA100, Metabolic Activation: HAMSTER, LIVER, S-9, AROCLOR 1254 (10%), Method: PREINCUBATION
[11] = Test System: AMES SALMONELLA TYPHIMURIUM, Strain/Indicator: TA100, Metabolic Activation: HAMSTER, LIVER, S-9, AROCLOR 1254 (30%), Method: PREINCUBATION
[12] = Test System: AMES SALMONELLA TYPHIMURIUM, Strain/Indicator: TA100, Metabolic Activation: RAT, LIVER, S-9, AROCLOR 1254 (10%), Method: PREINCUBATION
[13] = Test System: AMES SALMONELLA TYPHIMURIUM, Strain/Indicator: TA100, Metabolic Activation: RAT, LIVER, S-9, AROCLOR 1254 (30%), Method: PREINCUBATION
[14] = Test System: AMES SALMONELLA TYPHIMURIUM, Strain/Indicator: TA1535, Metabolic Activation: HAMSTER, LIVER, S-9, AROCLOR 1254 (10%), Method: PREINCUBATION
[15] = Test System: AMES SALMONELLA TYPHIMURIUM, Strain/Indicator: TA1535, Metabolic Activation: RAT, LIVER, S-9, AROCLOR 1254 (10%), Method: PREINCUBATION

CC(C)CCO
mutagenic call (Test System: CHINESE HAMSTER V-79, Strain/Indicator: V-79 (HPRT)/6-THIOGUANINE, Metabolic Activation: NONE, Method: STANDARD PLATE): inactive; negative
mutagenic call (Test System: CHINESE HAMSTER V-79, Strain/Indicator: V-79 (HPRT)/6-THIOGUANINE, Metabolic Activation: RAT LIVER S-9, Method: STANDARD PLATE): inactive; negative
mutagenic call (Test System: CHINESE HAMSTER V-79 CELLS, Strain/Indicator: V-79 CELLS (HPRT)/6-THIOGUANINE, Metabolic Activation: NONE, Method: PREINCUBATION): inactive; negative
mutagenic call (Test System: CHINESE HAMSTER V-79 CELLS, Strain/Indicator: V-79 CELLS (HPRT)/6-THIOGUANINE, Metabolic Activation: S-9 (3%), Method: PREINCUBATION): inactive; negative

COc1ccc(CC2CO2)cc1 (centres undefined)
mutagenic call [1]: active; positive
mutagenic call [2]: active; positive
mutagenic call [3]: active; positive
mutagenic call (Test System: AMES SALMONELLA TYPHIMURIUM, Strain/Indicator: TA1535, Metabolic Activation: NONE, Method: STANDARD PLATE): active; positive

Cc1cc2c3c(ccc2c2ccccc12)[C@@H](O)[C@H](O)[C@@H]1O[C@H]31
mutagenic call [1]: inactive; negative

CC(=O)O[C@H]1[C@H](OC23C=C(C)C4(CC4)C(C)(O)C2C(=O)C(C)(C)C3)O[C@H](CO)[C@@H](OC(=O)/C=C\c2ccc(O)cc2)[C@@H]1O (some centres undefined)
mutagenic call [4]: active; positive
mutagenic call [1]: active; positive

CC(=O)C1c2cccc(O)c2C(=O)c2c(O)cccc21
mutagenic call (Test System: AMES SALMONELLA TYPHIMURIUM, Strain/Indicator: TA1537, Metabolic Activation: NONE, Method: STANDARD PLATE): active; positive
mutagenic call (Test System: AMES SALMONELLA TYPHIMURIUM, Strain/Indicator: TA1537, Metabolic Activation: RAT, LIVER, S-9, PHENOBARBITAL AND BETA-NAPHTHOFLAVONE, Method: STANDARD PLATE): inactive; negative
mutagenic call (Test System: E. COLI, Strain/Indicator: WP2, Metabolic Activation: NONE, Method: STANDARD PLATE): inactive; negative
mutagenic call (Test System: E. COLI, Strain/Indicator: WP2, Metabolic Activation: RAT, LIVER, S-9, AROCLOR 1254, Method: STANDARD PLATE): inactive; negative
mutagenic call (Test System: E. COLI, Strain/Indicator: WP2 UVRA, Metabolic Activation: NONE, Method: STANDARD PLATE): inactive; negative
mutagenic call (Test System: E. COLI, Strain/Indicator: WP2 UVRA, Metabolic Activation: RAT, LIVER, S-9, AROCLOR 1254, Method: STANDARD PLATE): inactive; negative

Cc1cccc2cc3c(cc12)-c1cccc2cccc-3c12
mutagenic call (Test System: AMES SALMONELLA TYPHIMURIUM, Strain/Indicator: TA100, Metabolic Activation: RAT, LIVER, S-9, AROCLOR 1254): active; positive

CCCCCCCCCCCCOCC1CO1 (centres undefined)
mutagenic call (Test System: AMES SALMONELLA TYPHIMURIUM, Strain/Indicator: TA97, Metabolic Activation: HAMSTER, LIVER, S-9, AROCLOR 1254 (10%), Method: PREINCUBATION): inactive; negative
mutagenic call [5]: inactive; negative
mutagenic call [6]: inactive; negative
mutagenic call (Test System: AMES SALMONELLA TYPHIMURIUM, Strain/Indicator: TA97, Metabolic Activation: RAT, LIVER, S-9, AROCLOR 1254 (10%), Method: PREINCUBATION): inactive; negative
mutagenic call [7]: inactive; negative
mutagenic call [8]: inactive; negative
mutagenic call [9]: inactive; negative
mutagenic call [4]: inactive; negative
mutagenic call (Test System: AMES SALMONELLA TYPHIMURIUM, Strain/Indicator: TA98, Metabolic Activation: RAT, LIVER, S-9, AROCLOR 1254 (10% & 30%), Method: PREINCUBATION): inactive; negative
mutagenic call [10]: inactive; negative
mutagenic call [11]: inactive; negative
mutagenic call [1]: inactive; negative
mutagenic call [12]: inactive; negative
mutagenic call [13]: inactive; negative
mutagenic call [14]: inactive; negative
mutagenic call [3]: inactive; negative
mutagenic call [15]: inactive; negative
mutagenic call (Test System: AMES SALMONELLA TYPHIMURIUM, Strain/Indicator: TA1535, Metabolic Activation: RAT, LIVER, S-9, AROCLOR 1254 (30%), Method: PREINCUBATION): inactive; negative

NCC(=O)CCC(=O)O
mutagenic call [4]: inactive; negative
mutagenic call [1]: inactive; negative
mutagenic call (Test System: AMES SALMONELLA TYPHIMURIUM, Strain/Indicator: TA102, Metabolic Activation: NONE, Method: PREINCUBATION): active; positive
mutagenic call (Test System: AMES SALMONELLA TYPHIMURIUM, Strain/Indicator: TA104, Metabolic Activation: NONE, Method: PREINCUBATION): active; positive
mutagenic call [3]: inactive; negative

CC(C)CN
mutagenic call [8]: inactive; negative
mutagenic call [4]: inactive; negative
mutagenic call (Test System: AMES SALMONELLA TYPHIMURIUM, Strain/Indicator: TA98, Metabolic Activation: RAT, LIVER, S-9, AROCLOR 1254 (10%), Method: PREINCUBATION): inactive; negative
mutagenic call [10]: inactive; negative
mutagenic call [1]: inactive; negative
mutagenic call [12]: inactive; negative
mutagenic call [14]: inactive; negative
mutagenic call [3]: inactive; negative
mutagenic call [15]: inactive; negative
mutagenic call (Test System: AMES SALMONELLA TYPHIMURIUM, Strain/Indicator: TA1537, Metabolic Activation: HAMSTER, LIVER, S-9, AROCLOR 1254 (10%), Method: PREINCUBATION): inactive; negative
mutagenic call (Test System: AMES SALMONELLA TYPHIMURIUM, Strain/Indicator: TA1537, Metabolic Activation: NONE, Method: PREINCUBATION): inactive; negative
mutagenic call (Test System: AMES SALMONELLA TYPHIMURIUM, Strain/Indicator: TA1537, Metabolic Activation: RAT, LIVER, S-9, AROCLOR 1254 (10%), Method: PREINCUBATION): inactive; negative

COC(=O)Nc1cccc(OC(=O)Nc2cccc(C)c2)c1
mutagenic call [5]: inactive; negative
mutagenic call [6]: inactive; negative
mutagenic call [7]: inactive; negative
mutagenic call (Test System: AMES SALMONELLA TYPHIMURIUM, Strain/Indicator: TA98, Metabolic Activation: HAMSTER, LIVER, S-9, AROCLOR 1254 (10 OR 30%), Method: PREINCUBATION): inactive; negative
mutagenic call [9]: active; positive
mutagenic call [4]: inactive; negative
mutagenic call (Test System: AMES SALMONELLA TYPHIMURIUM, Strain/Indicator: TA98, Metabolic Activation: RAT, LIVER, S-9, AROCLOR 1254 (30%), Method: PREINCUBATION): inactive; negative
mutagenic call [11]: inactive; negative
mutagenic call [1]: inactive; negative
mutagenic call [13]: inactive; negative
mutagenic call (Test System: AMES SALMONELLA TYPHIMURIUM, Strain/Indicator: TA1538, Metabolic Activation: HAMSTER, LIVER, S-9, AROCLOR 1254 (10%), Method: PREINCUBATION): inactive; negative
mutagenic call (Test System: AMES SALMONELLA TYPHIMURIUM, Strain/Indicator: TA1538, Metabolic Activation: HAMSTER, LIVER, S-9, AROCLOR 1254 (30%), Method: PREINCUBATION): active; positive
mutagenic call (Test System: AMES SALMONELLA TYPHIMURIUM, Strain/Indicator: TA1538, Metabolic Activation: NONE, Method: PREINCUBATION): inactive; negative
mutagenic call (Test System: AMES SALMONELLA TYPHIMURIUM, Strain/Indicator: TA1538, Metabolic Activation: RAT, LIVER, S-9, AROCLOR 1254 (30%), Method: PREINCUBATION): inactive; negative

COc1cccc(NC(=O)c2csc([N+](=O)[O-])c2)c1
mutagenic call (Test System: AMES SALMONELLA TYPHIMURIUM, Strain/Indicator: TA98, Metabolic Activation: NONE, Method: STANDARD PLATE): active; positive
mutagenic call [2]: active; positive
